Laboratory results published in publication PMC7615709 (Antiviral research, 2007).

Biological target: T1, FLAG-p7 (HCV p7, genotype 1b) (Hepatitis C virus isolate HC-J4, UniProt O92972)
T1 sequence (O92972 747-809 limits assumed): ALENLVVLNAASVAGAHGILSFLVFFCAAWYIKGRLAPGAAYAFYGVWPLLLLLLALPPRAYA
Assay: carboxyfluorescein release from liposomes, fluorimetry, initial rates
Format: biochemical

NC12CC3CC(CC(C3)C1)C2 [amantadine]
IC50: ~2000 nM
